How the values were obtained:
Colorado Potato Beetles = experiment: Control of Colorado Potato Beetles on potatoes (defoliation); format: in vivo
Method: Comparative trials were conducted to show the protection of the formulation described herein against different insect pests.

[1] = Selective loading of active ingredient on cut side and skin side of tuber; format: physicochemical, potato; conditions: analyte fludioxonil
Text: Generally, treatment of potato tubers and/or cut seeds with liquid pesticides results in the majority of the pesticide settling on the cut side of the seed rather than on the skin side of the seed. Such affinity for the cut side is thought to be based on the pesticides' affinity for water. […] Rather, the pesticidal action is more useful on the skin side of the tuber, where the eyes are present and where germination occurs.
Although not wanting to be bound by any particular theory, it is thought that the nonpolar nature of the waxes and silicas present in the formulations of the present invention have affinity for the skin side, causing a greater loading of the active ingredients on the skin side.

O=[N+]([O-])NC1=NCCN1Cc1ccc(Cl)nc1 [Imidacloprid, imidacloprid]
% Defoliation (Colorado Potato Beetles; 102 days after planting (Wash. State)): 9%
% Defoliation (Colorado Potato Beetles; 105 days after planting (Idaho)): 0%

N#Cc1c[nH]cc1-c1cccc2c1OC(F)(F)O2 [Fludioxonil]
Amount of fludioxonil present on cut side of tuber ([1]; cut side): 21
Amount of fludioxonil present on skin side of tuber ([1]; skin side): 21
